# Data reported in patent US9814758B2, “Inhibitors of apoptosis and uses thereof” (CENTRE NATIONAL DE LA RECHERCHE SCIENTIFIQUE-CNRS, priority 2010, dated 2017).
# Entries after “also recorded” stand apart in the source; their conditions may differ. No end group written: not given here.
# How the values were obtained:
# primary cardiomyocytes = test: STS-induced DNA fragmentation (Cell Death detection ELISA PLUS) in primary cardiomyocytes; format: cell-based, mouse; conditions: for ability to decrease cell apoptosis / protect the cells: against STS; for reduction of DNA fragmentation: peptide given together with staurosporine, 1 μM, related to STS-treated cells (=100%), FIG. 5B
# Protocol: FIG. 5: In vitro evaluation of the anti-apoptotic activity of CPPs and CPP-conjugates. Workflow and quantitation of DNA fragmentation in (A) C2C12 cells, (B) primary cardiomyocytes, (C) H9c2 cells and (D) NG108-15 cells. Data were normalized to 100% STS. Data shown are the means±SEM, with n≧5. Cells were seeded in 24-well plates and grown overnight. The next day, the cells were incubated with STS alone or with STS+1 μM peptide (in OPTI-MEM) (OPTI-MEM® is a modification of Eagle's Minimum Essential Media, buffered with HEPES and sodium bicarbonate, and supplemented with hypoxanthine, thymidine, sodium pyruvate, L-glutamine, trace elements, and growth factors) (STS concentration and incubation time for each cells are given in the figure). Thereafter, solutions were removed, replaced by complete medium and further incubated for 40 h. Following the regeneration phase, the cells were lyzed and DNA fragmentation was detected according to manufacturer's instructions (Cell Death detection ELISA^PLUS kit—Roche Diagnostics).
# FIG. 6: Anti-apoptotic activity of variants of the Tat-DAXXp sequence on primary cardiomyocytes. As described in the caption of FIG. 5, the different analogues of the DAXXp sequence (see Table 2) were assessed for anti-apoptotic properties against STS (Cell Death detection ELISA^PLUS kit—Roche Diagnostics) (A-B). None of the analogues were able to protect the primary cardiomyocytes—a fact which confirms that the 16mer DAXXp has the optimal length and sequence for highest cardioprotective effect.
# FIG. 7: Comparison of the murine/rat DAXXp with the human DAXXp sequence in terms of anti-apoptotic activity on C2C12 cells, primary cardiomyocytes, and H9c2. The murine DAXXp sequence conjugated to Tat (Tat-mDAXXp—SEQ ID NO: 61) which is identical to the rat DAXXp sequence (see FIG. 1B), was compared to the human construct (Tat-DAXXp) in terms of anti-apoptotic properties against STS (Cell Death detection ELISA^PLUS kit—Roche Diagnostics). The C2C12 cells and the primary cardiomyocytes used were from mice and the H9c2 cells from rat.
# FIG. 9: Comparison of FADDp constructs with Tat-DAXXp in terms of anti-apoptotic activity in primary cardiomyocytes and in H9c2 cells. Quantification of DNA normalized to 100% STS. Data shown are the means±SEM, with n≧5. Cells were seeded in 24-well plates and grown overnight. The next day, the cells were incubated with STS alone or with STS+1 μM peptide (in OPTI-MEM®) (OPTI-MEM® is a modification of Eagle's Minimum Essential Media, buffered with HEPES and sodium bicarbonate, and supplemented with hypoxanthine, thymidine, sodium pyruvate, L-glutamine, trace elements, and growth factors) (STS concentration is given in the figure and incubation time is given in FIG. 5). Thereafter, solutions were removed, replaced by complete medium and further incubated for 40 hours. Following the regeneration phase, the cells were lyzed and DNA fragmentation was detected according to manufacturer's instructions (Cell Death detection ELISA^PLUS kit—Roche Diagnostics).
# FIG. 10: Comparison of Tat-DAXXp and Tat-FADDp15 alone and in combination in primary cardiomyocytes (A) and in H9c2 cells (B).
# Thereafter, the capacity of these peptides to inhibit apoptosis induced by staurosporine was evaluated. Apoptosis was determined using the Cell Death detection ELISA^PLUS kit (Roche) measuring the DNA fragmentation.
# In most publications, anti-apoptotic peptides currently available in the art are administrated 3-4 hours prior to apoptosis induction, which is poorly relevant to a clinical application. For that reason, the protocol used in the present study included administration of the peptides together with the staurosporine. […] This was not observed with CPP alone or with the Tat-scrDAXXp or Tat-ncDAXXp negative controls. […] To better compare the results, the DNA fragmentation (described by the enrichment factor) is related to the staurosporine-treated cells (=100%).
# [1] = biological target: T1, His-tagged intracellular region of Fas receptor (Homo sapiens, UniProt P25445); test: SPOT peptide array, enzyme-linked blot with His-tagged Fas; format: binding; conditions: Fas 10 μg/ml, anti-His/anti-mouse-HRP
# T1 construct: His-tagged intracellular region of Fas receptor [10 μg/ml]; purchased Sigma
# T1 sequence (P25445 191-335 limits assumed): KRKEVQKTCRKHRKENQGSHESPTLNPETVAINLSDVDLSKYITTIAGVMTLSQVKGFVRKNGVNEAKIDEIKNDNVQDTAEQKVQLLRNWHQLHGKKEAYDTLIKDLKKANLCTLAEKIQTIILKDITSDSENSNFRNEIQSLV
# Protocol: FIG. 1: Determination of the DAXX epitope by SPOT synthesis. (A) The amino acid sequence of DAXX was dissected in overlapping peptide arrays (pepscan; 15 mer peptides with a shift of 3 amino acids) and analyzed in enzyme-linked blot. […] Incubation conditions: His-tagged intracellular region of Fas receptor [10 μg/ml]; antibodies: anti-His-(mouse) (Sigma H1029; 1:6,000)/anti-mouse-HRP (Calbiochem 401207; 1:2,000), exposure time: 1 minute. (B) Alignment of the human DAXX sequence comprising the 16-mer KKSRKEKKQTGSGPLG (=DAXXp of SEQ ID NO: 5) with the DAXX sequences of other species (mouse, rat, dog (CANFA) and green monkey (CHLAE)).
# FIG. 2: Determination of the optimal length of the DAXX epitope (=DAXXp) by SPOT synthesis. (A) The DAXXp-211 and DAXXp-209 peptides (of SEQ ID NO: 2 and SEQ ID NO: 3, respectively) were successively shortened by one amino acid residue at the N-terminus, at the C-terminus and both at the N- and the C-termini, and analyzed using enzyme-linked blot. […] Incubation conditions: His-tagged intracellular region of Fas receptor [10 μg/ml]; antibodies: anti-His-(mouse) (Sigma H1029; 1:6,000)/anti-mouse-HRP (Calbiochem 401207; 1:2,000), exposure time: 1 minute. (B) Alignment of both peptide sequences DAXXp-211 and DAXXp-209; corresponding to the brightest spots, to determine the optimal DAXX peptide sequence.
# FIG. 8: Determination of FADDp15 and its anti-apoptotic effect in cardiomyocytes. (A) The protein sequences of FADD were dissected in overlapping peptide arrays (pepscan; 15 mer peptides with a shift of 3 amino acids) and analyzed using enzyme-linked blot. […] (B) The peptide sequence of FADDp-11 (=FADDp15=SEQ ID NO: 9) was successively shortened by one amino acid residue at the C-terminus, the N-terminus, or at both the C-terminus and the N-terminus, and analyzed using enzyme-linked blot. […] The shortest FADD epitope (a 9-mer with sequence KRKLERVQS (=FADDp=SEQ ID NO: 12)) corresponded to spot No. 24. Incubation conditions: His-tagged intracellular region of Fas receptor [10 μg/ml]; antibodies: anti-His-(mouse) (Sigma H1029; 1:6,000)/anti-mouse-HRP (Calbiochem 401207; 1:2,000), exposure time: 1 minute.
# The peptides were synthesized on N-modified CAPE-membranes (Bhargava et al, Mol. Recognit, 2002, 15: 145) and prepared by a MultiPep SPOT-robot (INTAVIS Bioanalytical Instruments AG, Cologne, Germany). Array design was performed with the aid of the in-house software LISA 1.71. The synthesis started with spot definition using a standard protocol [Frank, Tetrahedron, 1992, 48: 9217), followed by the coupling of a solution of Fmoc-cysteine-(Trt)-Opfp (0.3M) in N-methylpyrolidone (NMP) and Fmoc-alanine-Opfp (double coupling, 15 min reaction each). After Fmoc cleavage with piperidine in DMF (20%), 4-hydroxymethylphenoxyacetic acid (HMPA) dissolved in dimethylformamide (DMF, 0.6M solution) and activated with EEDQ (1.1 equiv) was added, and samples were directly spotted on the membrane (4× coupling, 15 min reaction each). The membrane was acetylated with acetic anhydride in DMF (2%), washed with DMF (5×3 min), ethanol (2×3 min), and diethyl ether (2×3 min), and finally air dried. Solutions of Fmoc-amino acid-OH (0.4M) activated with 1,1′-carbonyldiimidazole (CDI, 3 equiv) in DMF were spotted on the membrane (4× coupling, 15 min reaction time each). Proline, tyrosine, and glutamine were activated with 1,1′-carbonyldi(1,2,4-triazole) (CDT). The Fmoc group was removed from the spots, and the peptide sequences were completed using the standard SPOT synthesis protocol (Frank, Tetrahedron, 1992, 48: 9217) followed by a N-terminal tag with β-alanine.
# The primary sequence of the DAXX protein (SEQ ID NO: 1) was dissected in overlapping 15 mer peptides (3 amino acids shift) and all the peptides (243 peptides) were synthesized on cellulose membrane by SPOT synthesis as described above. The peptide library was incubated with the His-tagged intra-cellular region of the Fas receptor (Sigma). […]
# [2] = test system: C57Bl6 mice, myocardial ischemia-reperfusion; test: Myocardial ischemia-reperfusion IR60' (40 min ischemia, 60 min reperfusion); format: in vivo, mouse; conditions: IR60'; data not shown
# Protocol: FIG. 11: In vivo experimental protocol. C57Bl6 mice underwent a surgical protocol of myocardial ischemia-reperfusion (IR). The black box represents the period of ischemia to which the mice were submitted. Infarct size or cell death measurements were performed at the end of surgery for each protocol (indicated by ↑). IR60′: 40 minutes of Ischemia, 60 minutes of Reperfusion. IR24h: 40 minutes Ischemia and 24 hours Reperfusion.
# FIG. 12: Cardioprotective effects of Tat-DAXXp (1 mg/kg—IV) in mice subjected to IR60′. Infarct size (in % of area at risk) and internucleosomal DNA fragmentation determined by ELISA were quantified in mice subjected to IR60′ and treated with Tat, Tat-DAXXp or Tat-scrDAXXp (1 mg/kg) as well as with DAXXp (10 mg/kg) (intravenous injection (IV) 5 minutes before reperfusion). Means±SEM were plotted for (A): Area at risk/LV mass (left ventricle), (B): Infarct size (in % of area at risk) and (C): (I/NI ratio) corresponding to the ratio of soluble nucleosome in the ischemic portion versus the non-ischemic portion of LV tissues. Statistical analysis was performed using One-way ANOVA with Neuman-Keuls post test for multiple comparisons (GraphPad Prism software). P<0.05, P<0.01 and P<0.001 versus Tat-DAXXp were noted *, **, and *** respectively. P=ns (not significant) for P>0.05.
# FIG. 13: Dose response for Tat-DAXXp and DAXXp in mice subjected to IR60′. Infarct size (in % of area at risk) and internucleosomal DNA fragmentation determined by ELISA were quantified in mice subjected to IR60′ and treated with Tat (1 mg/kg), Tat-DAXXp (0.1, 1 and 10 mg/kg) or DAXXp (0.1, 1 and 10 mg/kg) injected intravenously 5 minutes before reperfusion. Means±SEM were plotted for (A): Area at risk/LV mass (left ventricle), (B): Infarct size (in % of area at risk) and (C): (I/NI ratio) corresponding to the ratio of soluble nucleosome in the ischemic versus the non-ischemic portion of LV tissues.
# In a second step, the cardioprotective effects of DAXXp were evaluated in an in vivo model of myocardial ischemia-reperfusion. Acute myocardial ischemia and reperfusion were performed in C57Bl6 mice subjected to a surgical model of reversible coronary occlusion. Male mice (22-28 g) were anesthetized and ventilated via a tracheal intubation using a Harvard rodent respirator. Body temperature was maintained between 36.8° C. and 37.0° C. via a thermo-regulated surgical table. The chest was opened by left lateral thoracotomy and a reversible coronary artery snare occluder was placed around the left coronary artery. Mice were randomly allocated to two different surgical protocols of myocardial ischemia-reperfusion (FIG. 11). At the end of reperfusion, the artery was re-occluded and phtalocyanine blue dye was injected into the left ventricle cavity and allowed to perfuse the non-ischemic portions of the myocardium. To determine the effect of DAXXp on myocardial infarct size, peptides were administered intravenously (caudal vein) 5 minutes before reperfusion during the surgical protocol of ischemia-reperfusion. The control groups were treated with Tat or Pip2b peptide (for CPP alone). The dose of 1 mg/kg was chosen (μmolar range) and dose responses for 0.1 and 10 mg/kg were also tested.
# At the end of reperfusion, mice were re-anaesthetized, the coronary ligature definitively tightened, the blue dye injected and the harvested left ventricles were dedicated to infarct size (TTC method, Schwartz et al, J Thromb. Thromb., 2000; 10: 181-187) or DNA fragmentation measurements (Cell death detection ELISA^PLUS kit, Roche Diagnostics) in order to investigate the cardioprotective effects against ischemia-reperfusion injuries.
interaction with the Fas receptor / signal intensity of the spot [1],interaction with the Fas receptor / signal intensity of the spot ([1]; listed as Spot No. 211),Substance,ability to decrease cell apoptosis / protect the cells (primary cardiomyocytes),reduction of DNA fragmentation (primary cardiomyocytes),"cardioprotection (infarct size, DNA fragmentation) [2]"
interact with the Fas receptor,,"DAXXp-14: fragment of the DAXX protein, amino acid sequence set forth in SEQ ID NO: 6 (SRKEKKQTGSGPLG; listed as Homo sapiens)",only DAXXp is capable of decreasing cell apoptosis,,
interact with the Fas receptor,,KRKLERVQS (listed as Homo sapiens) [FADDp],decrease cell apoptosis,,
interact with the Fas receptor,highest signal intensity,KSRKEKKQTGSGPLG (listed as Homo sapiens) [DAXXp-15],only DAXXp is capable of decreasing cell apoptosis,,

# More lines, now with the values behind:
Substance,interaction with the Fas receptor / signal intensity of the spot [1],interaction with the Fas receptor / signal intensity of the spot ([1]; listed as Spot No. 211),ability to decrease cell apoptosis / protect the cells (primary cardiomyocytes),reduction of DNA fragmentation (primary cardiomyocytes),"cardioprotection (infarct size, DNA fragmentation) [2]"
GRKKRRQRRRPPQ-AKLYVYINELCTVLK-NH2 [Tat-ncDAXXp],,,,not observed,
"GRKKRRQRRRPPQ-KKGRKQSGESLGTPKK-NH2 (GRKKRRQRRRPPQKKGRKQSGESLGTPKK-NH2) [Tat-scrDAXXp, negative control; scrambled version of DAXXp conjugated to Tat]",,,,not observed,not observed
VGKRKLERVQSGLDL (listed as Homo sapiens) [FADDp15],higher signal intensity; also recorded: interact with the Fas receptor,,decrease cell apoptosis,,
